The source of these data is patent US4734411A, “Pyrrolizidine compounds, salts thereof, process for the preparation of same and pharmaceutical agents comprising same” (Sanwa Kagaku Kenkyusho Co., Ltd., priority 1985, dated 1988).

The test system of data set [1] is pupil diameter. The data set can be described thus: Influence on pupil diameter of mice (mydriatic effect). Particulars: oral, 30 minutes. The class given is in vivo, ICR mice, male. As to the method:
(Influence on pupil diameter of mice)
Some pyrrolizidine compounds according to the invention were tested to evaluate their influence on the pupil diameter of mice, in comparison with Pirenzepine and Atropine as controls.
The animals were deprived of food for 18 hours prior to the test. After 30 minutes from oral administration of the compounds, the pupil width was measured by a micrometer. Results are shown in following Table 3 in terms of ratio of pupil diameter and mydriatic effect.

Data set [2] in a line: Acute toxicity in mice. The class given is in vivo. The conditions noted are these: mouse, in vivo; oral, 7 days, 5 animals, Litchfield-Wilcoxon's method. The procedure:
(§1) Some pyrrolizidine compounds according to the invention were tested to evaluate their acute toxicity in mice.
(§2) ICR mice of male sex were used, each having the body weight of 24.8 to 30.0 g. The compounds were orally administered and general condition, behavior and mortality were observed daily throughout the experimental period of time (7 days). At end of the period, the surviving animals were sacrificed. Dead animals were sacrificed at the time when they were recognized to be dead. LD50 value was calculated in accordance with Litchfield-Wilcoxon's method.

For data set [3], the system named is aspirin induced gastric ulcer. Description: Aspirin ulcer in rats (pylorus ligated). The data set is classed as in vivo, Sprague-Dawley rats, male. Particulars: for Inhibition (%): an hour before pylorus ligation and aspirin (100 mg/kg); for ED50: Rattus norvegicus. The procedure:
Some pyrrolizidine compounds according to the invention were tested to evaluate their anti-ulcer activity on Aspirin ulcer, in comparison with Pirenzepine and Cimetidine as controls, in accordance with the procedure proposed by Okabe et al. ["Japan. J. Pharmacol." Vol. 24, page 363 (1974)].
Sprague-Dawley rats of male sex were used, each having the body weight of 146 to 210 g. The animals were deprived of food for 24 hours prior to the test. After an hour from oral administration of the compounds, the pylorus was ligated under anesthesia by ethyl ether and aspirin (100 mg/kg) suspended with 5% gum arabic was orally administered. After 7 hours from the administration, the stomach was isolated and inflated with 10 ml of 1% formalin. The ulcer index was determined as the sum of the length (mm) of each erosion per rat.
Results are shown in following Table 2 in terms of percent inhibition of anti-ulcer activity with respect to concentrations of 10 to 100 mg/kg.

Data set [4] deals with stress induced gastric ulcer. Description: Stress ulcer in rats (restraint and water immersion). The data set is classed as in vivo, Wistar rats, male. Particulars: for Inhibition (%): an hour before the restraint; for ED50: Rattus norvegicus. As to the method:
Some pyrrolizidine compounds according to the invention were tested to evaluate their anti-ulcer activity in comparison with Pirenzepine and Cimetidine as controls, in accordance with the procedure proposed by Takagi et al.["Japan. J. Pharmacol." Vol. 18, page 9 (1968)].
Wistar rats of male sex were used, each having the body weight of 138 to 207 g. The animals were deprived of food for 24 hours prior to the test. They were immobilized in a restraint cage and immersed for 7 hours to the height of the xiphoid in a water bath kept at 23±1° C. After inflation with 10 ml of 1% formalin, the isolated stomach was opened along the greater curvature. The ulcer index was determined as the sum of the length (mm) of each erosion per rat. The compounds were administered orally an hour before the restraint.

The conditions of data set [5]: in words, related arts; cited from earlier work.
In data set [6] the test system is ICR mice. The data set can be described thus: Acute toxicity in mice. The data set is classed as in vivo. Particulars: oral, 7 days, of 5 animals; numeral in parenthesis. The procedure: as §1, §2
Setting [7] is: 30 mg/kg, Atropine (1 mg/kg) = 1.00.
Where [8] appears, read: oral, concentration of inhibitor which gives 50% inhibition, read-out: ED50.

Where two headings read alike, the source gives them in different places.

For the compound `CN(C)S(=O)(=O)c1ccc2c(c1)N(CC13CCCN1CCC3)c1ccccc1S2` [Example 3, 2-(N,N-Dimethylsulfamoyl)-10-(7a-pyrrolizidinylmethyl)phenothiazine], the “Rate of pupil dia. (pre. = 1)” value in data set [1] (30 mg/kg) is given as 1.1. In addition, the Ratio of mydriasis in data set [1] (setting [7]) was 0.23. Further, the LD50 at 168 h in data set [2] is above 1000 mg/kg. The “Inhibition (%)” value in data set [3] (10 mg/kg, oral) turned out to be 19.7%; in data set [3] (100 mg/kg, oral), 36.5%; in data set [4] (10 mg/kg, oral) it was 49.4%; in data set [4] (100 mg/kg, oral) it was 65.6%. Moreover, the ED50 in data set [3] (setting [8]) is above 100 mg/kg; in data set [4] (setting [8]), 11.8 mg/kg.
On to `CN1[C@@H]2CC[C@H]1C[C@@H](OC(=O)C(CO)c1ccccc1)C2` (stereo partly drawn) [Atropine, reference compound], for which, in data set [1] (1 mg/kg), the “Rate of pupil dia. (pre. = 1)” value is 4.7 and the Ratio of mydriasis is on record as 1.00.
For the compound `CN1CCN(CC(=O)N2c3ccccc3C(=O)Nc3cccnc32)CC1` [Pirenzepine, reference compound], the “Rate of pupil dia. (pre. = 1)” value in data set [1] (30 mg/kg) was 3.4. Also, the Ratio of mydriasis in data set [1] (setting [7]) is recorded as 0.72. Further, the “Inhibition (%)” value in data set [3] (10 mg/kg, oral) is 22.1%; in data set [3] (100 mg/kg, oral) it was 90.5%; in data set [4] (10 mg/kg, oral) it was 7.2%; in data set [4] (100 mg/kg, oral), 98.8%. The 50% effective dose (ED50) in data set [3] (setting [8]) came to 23.7 mg/kg; in data set [4] (setting [8]), 26.3 mg/kg. In data set [5], the side effects result is on record as “side reactions due to supression of muscarinic receptor, although those are somewhat weak”.
`CN/C(=N/CCSCc1nc[nH]c1C)NC#N` [Cimetidine, reference compound]: the “Inhibition (%)” value in data set [3] (10 mg/kg, oral) turned out to be 12.2%; in data set [3] (100 mg/kg, oral) it was 69.6%; in data set [4] (10 mg/kg, oral), 16.9%; in data set [4] (100 mg/kg, oral), 81.5%. The values for the ED50 in data set [3] (po) and in data set [4] (po) were 50.4 mg/kg and 33.8 mg/kg, respectively. Further, the side effects result in data set [5] was “side effects of forming a perforation in ulcer and strengthening a delayed hypersensitive reaction”.
In the case of `c1ccc2c(c1)Sc1ccccc1N2CCC12CCCN1CCC2` [Example 2, 10-[2-(7a-Pyrrolizidinyl)ethyl)phenothiazine], in data set [1] (30 mg/kg), the “Rate of pupil dia. (pre. = 1)” value was determined as 4.6. Further, the Ratio of mydriasis in data set [1] (setting [7]) was 0.98. In data set [2], this compound had a 50% lethal dose (LD50) at 168 h below 1000 mg/kg. In addition, in data set [6], the “number of dead animals” value is recorded as 4. Also, the “Inhibition (%)” value in data set [3] (10 mg/kg, oral) was found to be 53.3%; in data set [3] (100 mg/kg, oral) it was 73.2%; in data set [4] (10 mg/kg, oral), 38.6%; in data set [4] (100 mg/kg, oral), 87.0%. The ED50 in data set [3] (setting [8]) is below 10 mg/kg; in data set [4] (setting [8]), 16.4 mg/kg.
Turning to `O=C1Nc2cccnc2N(C(=O)C23CCCN2CCC3)c2ccccc21` [Example 5, 5,11-Dihydro-11-(pyrrolizidine-7a-carbonyl)-6H-pyrido(2,3-b)(1,4)-benzodiazepin-6-one], the “Rate of pupil dia. (pre. = 1)” value in data set [1] (30 mg/kg) came to 0.9. Also, the Ratio of mydriasis in data set [1] (setting [7]) is listed as 0.19. In data set [2], this compound gave an LD50 at 168 h above 1000 mg/kg. Also, in data set [6], the “number of dead animals” value turned out to be 1. The “Inhibition (%)” value stood at 23.6% in data set [3] (10 mg/kg, oral); 82.2% in data set [3] (100 mg/kg, oral); 31.7% in data set [4] (10 mg/kg, oral); 80.2% in data set [4] (100 mg/kg, oral). The 50% effective dose (ED50) in data set [3] (setting [8]) came out at 27.9 mg/kg; in data set [4] (setting [8]) it was 23.6 mg/kg.
`C[Si](C)(C)c1cccc2c1N(CC13CCCN1CCC3)c1ccccc1S2` [Example 4, 10-(7a-Pyrrolizidinylmethyl)-1-trimethylsilylphenothiazine] gave an LD50 at 168 h in data set [2] above 1000 mg/kg. Besides, the “Inhibition (%)” value in data set [3] (10 mg/kg, oral) is on record as 17.7%; in data set [3] (100 mg/kg, oral), 65.6%. The compound further returned an ED50 in data set [3] (po) of 60.4 mg/kg.
As to `c1ccc2c(c1)Sc1ccccc1N2CC12CCCN1CCC2` [Example 1, 10-(7a-Pyrrolizidinylmethyl)phenothiazine], in data set [1] (30 mg/kg), the “Rate of pupil dia. (pre. = 1)” value is given as 2.7. For the same compound, the Ratio of mydriasis in data set [1] (setting [7]) stood at 0.57. Further, the median lethal dose (LD50) at 168 h in data set [2] was above 1000 mg/kg. For the same compound, the “Inhibition (%)” value was found to be 58.3% in data set [3] (10 mg/kg, oral); 63.5% in data set [3] (100 mg/kg, oral); 55.4% in data set [4] (10 mg/kg, oral); 92.5% in data set [4] (100 mg/kg, oral). Besides, the ED50 in data set [3] (setting [8]) and in data set [4] (setting [8]) was below 10 mg/kg each time.
